Reference: patent US20240287080A1 (IDEAYA Biosciences Inc., priority 2021, published 2024)

Biological target: T1, Pol theta (1-899) (Homo sapiens, UniProt O75417)
T1 construct: Pol theta (1-899) (5 nM) in assay buffer
Experiment: Pol theta ATPase activity, NADH oxidation-coupled enzymatic assay (ATPase NADH coupling: Standard Screening: hPolQ)
Format: biochemical
Conditions: Pol theta (1-899) 5 nM, NADH oxidation-coupled ATPase assay; compounds of Table 3
Outline: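 Rates of ATP hydrolysis taken from 60-min A340 traces of NADH oxidation via PK/LDH coupling, then fit four-parameter for IC50, Hill slope and max inhibition. Enzyme (5 nM, 1-899) and compounds preincubated 15 min before ATP 100 μM and 50-thymine ssDNA 300 nM (stock, equal volume added).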

T1 sequence (O75417 1-899): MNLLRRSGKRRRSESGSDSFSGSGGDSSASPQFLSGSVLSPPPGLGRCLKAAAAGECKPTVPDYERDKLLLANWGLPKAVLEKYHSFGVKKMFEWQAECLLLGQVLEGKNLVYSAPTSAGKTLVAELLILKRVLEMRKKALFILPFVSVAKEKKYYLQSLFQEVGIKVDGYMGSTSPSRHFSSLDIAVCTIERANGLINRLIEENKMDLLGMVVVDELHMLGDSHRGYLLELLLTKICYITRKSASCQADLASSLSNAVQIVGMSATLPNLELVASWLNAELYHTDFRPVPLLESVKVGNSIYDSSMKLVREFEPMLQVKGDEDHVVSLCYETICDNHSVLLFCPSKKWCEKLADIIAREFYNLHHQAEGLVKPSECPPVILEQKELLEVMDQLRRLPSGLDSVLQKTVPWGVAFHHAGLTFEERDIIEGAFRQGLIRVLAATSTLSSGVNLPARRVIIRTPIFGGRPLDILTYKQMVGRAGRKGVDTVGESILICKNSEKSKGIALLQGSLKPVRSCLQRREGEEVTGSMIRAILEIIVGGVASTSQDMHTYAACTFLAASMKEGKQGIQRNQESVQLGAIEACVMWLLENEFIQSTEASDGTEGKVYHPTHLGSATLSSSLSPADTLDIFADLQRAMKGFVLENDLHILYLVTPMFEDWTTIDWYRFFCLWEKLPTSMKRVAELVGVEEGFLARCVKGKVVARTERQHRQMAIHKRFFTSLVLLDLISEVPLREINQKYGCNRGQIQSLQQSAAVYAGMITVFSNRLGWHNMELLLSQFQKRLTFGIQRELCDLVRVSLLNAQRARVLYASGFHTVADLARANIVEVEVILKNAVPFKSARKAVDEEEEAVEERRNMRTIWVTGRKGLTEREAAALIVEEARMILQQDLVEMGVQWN

Row | IC50 [nM] | Compound
1 | 1000 to 10000 | COc1nnc(NC(=O)c2cnc(C)cc2-c2cccc(N(C)C)c2)s1 [Example 412, 4-[3-(dimethylamino)phenyl]-N-(5-methoxy-1,3,4-thiadiazol-2-yl)-6-methylpyridine-3-carboxamide]
2 | 1000 to 10000 | COc1ccc(-c2cc(C)ncc2C(=O)Nc2nnc(OC)s2)cc1 [Example 377, N-(5-methoxy-1,3,4-thiadiazol-2-yl)-4-(4-methoxyphenyl)-6-methylpyridine-3-carboxamide]
3 | ≤ 200 | COc1cnc(Cl)cc1-c1cc(C)ncc1C(=O)Nc1nnc(OCCN(C)CC(F)(F)F)s1 [Example 317, 2′-chloro-5′-methoxy-6-methyl-N-(5-(2-(methyl(2,2,2-trifluoroethyl)amino)ethoxy)-1,3,4-thiadiazol-2-yl)-[4,4′-bipyridine]-3-carboxamide]
4 | 1000 to 10000 | COc1nnc(NC(=O)c2cnc(C)cc2-c2cnn3c2CCCC3)s1 [Example 395, N-(5-methoxy-1,3,4-thiadiazol-2-yl)-6-methyl-4-{4H,5H,6H,7H-pyrazolo[1,5-a]pyridin-3-yl}pyridine-3-carboxamide]
5 | 1000 to 10000 | COc1nnc(NC(=O)c2cnc(C)cc2-c2cccc(OC)c2F)s1 [Example 446, 4-(2-fluoro-3-methoxyphenyl)-N-(5-methoxy-1,3,4-thiadiazol-2-yl)-6-methylpyridine-3-carboxamide]
6 | ≤ 200 | COc1cnc(Cl)cc1-c1cc(C)ncc1C(=O)Nc1nnc(O[C@H]2CCCN([C@@H]3CCOC3)C2)s1 [Example 309, 2′-chloro-5′-methoxy-6-methyl-N-(5-(((S)-1-((R)-tetrahydrofuran-3-yl)piperidin-3-yl)oxy)-1,3,4-thiadiazol-2-yl)-[4,4′-bipyridine]-3-carboxamide]
7 | 1000 to 10000 | COc1nnc(NC(=O)c2cnc(C)cc2-c2ccncc2C)s1 [Example 406, N-(5-methoxy-1,3,4-thiadiazol-2-yl)-3′,6-dimethyl-[4,4′-bipyridine]-3-carboxamide]
8 | ≤ 200 | COc1cnc(Cl)cc1-c1cc(C)ncc1C(=O)Nc1nnc(OC2([C@@H]3CCOC3)CC2)s1 (single isomer, unassigned) [Example 299]
9 | ≤ 200 | COc1cnc(Cl)c(F)c1-c1cc(C)ncc1C(=O)Nc1nnc(O[C@H]2CC[C@@H](CO)CC2)s1 [Example 245, 2′-chloro-3′-fluoro-N-(5-(((1s,4s)-4-(hydroxymethyl)cyclohexyl)oxy)-1,3,4-thiadiazol-2-yl)-5′-methoxy-6-methyl-[4,4′-bipyridine]-3-carboxamide]
10 | ≤ 200 | CC[S@@+]([O-])c1cc(OC)c(-c2cc(C)ncc2C(=O)Nc2nnc(OC)s2)cc1Cl (single isomer, unassigned) [Example 313]
11 | 1000 to 10000 | COc1nnc(NC(=O)c2cnc(C)cc2-c2ccc(S(N)(=O)=O)cc2)s1 [Example 378, N-(5-methoxy-1,3,4-thiadiazol-2-yl)-6-methyl-4-(4-sulfamoylphenyl)pyridine-3-carboxamide]
12 | 1000 to 10000 | COc1ccc(-c2cc(C)ncc2C(=O)Nc2nnc(OC)s2)c(F)c1 [Example 445, 4-(2-fluoro-4-methoxyphenyl)-N-(5-methoxy-1,3,4-thiadiazol-2-yl)-6-methylnicotinamide]
13 | ≤ 200 | COc1cnc(Cl)cc1-c1cc(C)ncc1C(=O)Nc1nnc(O[C@@H]2C[C@H](F)CN(C)C2)s1 [Example 267, 2′-chloro-N-(5-(((3R,5S)-5-fluoro-1-methylpiperidin-3-yl)oxy)-1,3,4-thiadiazol-2-yl)-5′-methoxy-6-methyl-[4,4′-bipyridine]-3-carboxamide]
14 | ≤ 200 | COc1nnc(NC(=O)c2cnc(C)cc2-c2cccc(C)c2F)s1 [Example 414, 4-(2-fluoro-3-methylphenyl)-N-(5-methoxy-1,3,4-thiadiazol-2-yl)-6-methylpyridine-3-carboxamide]
15 | 200 to 500 | COc1nnc(NC(=O)c2cnc(C)cc2-c2cc(C)nc(C)c2)s1 [Example 469, N-(5-methoxy-1,3,4-thiadiazol-2-yl)-2′,6,6′-trimethyl-[4,4′-bipyridine]-3-carboxamide]
16 | 1000 to 10000 | COc1nnc(NC(=O)c2cnc(C)cc2-c2cc(C3CC3)nn2C2CCCCO2)s1 (stereo not shown) [Example 350, 4-(3-cyclopropyl-1-(tetrahydro-2H-pyran-2-yl)-1H-pyrazol-5-yl)-N-(5-methoxy-1,3,4-thiadiazol-2-yl)-6-methylnicotinamide]
17 | ≤ 200 | COc1cnc(Cl)cc1-c1cc(C)ncc1C(=O)Nc1nnc(OC2CCCN(C3CCOC3)C2)s1 (stereo not shown) [Example 247, 2′-chloro-5′-methoxy-6-methyl-N-(5-((1-(tetrahydrofuran-3-yl)piperidin-3-yl)oxy)-1,3,4-thiadiazol-2-yl)-[4,4′-bipyridine]-3-carboxamide]

Same assay, conditions: Table 4; Pol theta (1-899) 5 nM, ATP, dT50 ssDNA

Row | IC50 [nM] | Compound
18 | ≤ 200 | COc1nnc(NC(=O)c2cnc(C)cc2-c2cc(Cl)ccc2OC(F)F)s1 [Example 33, 4-(5-chloro-2-(difluoromethoxy)phenyl)-N-(5-methoxy-1,3,4-thiadiazol-2-yl)-6-methylnicotinamide]

Same assay, conditions: Table 5; Pol theta (1-899) 5 nM, ATP, dT50 ssDNA

Row | IC50 [nM] | Compound
19 | ≤ 200 | COc1cnc(Cl)c(F)c1-c1cc(C)ncc1C(=O)Nc1nnc(O[C@H]2CC[C@H](OC)CC2)s1 (single isomer, unassigned) [Example 153, 2′-chloro-3′-fluoro-5′-methoxy-N-(5-(((1r,4r)-4-methoxycyclohexyl)oxy)-1,3,4-thiadiazol-2-yl)-6-methyl-(4,4′-bipyridine)-3-carboxamide]
20 | ≤ 200 | COc1cnc(Cl)c(F)c1-c1cc(C)ncc1C(=O)Nc1nnc(O[C@H]2CC[C@@H](OC)CC2)s1 (single isomer, unassigned) [Example 152, 2′-chloro-3′-fluoro-5′-methoxy-N-(5-(((1s,4s)-4-methoxycyclohexyl)oxy)-1,3,4-thiadiazol-2-yl)-6-methyl-(4,4′-bipyridine)-3-carboxamide]
21 | ≤ 200 | COc1cnc(Cl)cc1-c1cc(C)ncc1C(=O)Nc1nnc(O[C@H]2CC[C@@H](OC)C2)s1 (racemic) [Example 150, rac-2′-chloro-5′-methoxy-N-(5-(((1R,3S)-3-methoxycyclopentyl)oxy)-1,3,4-thiadiazol-2-yl)-6-methyl-(4,4′-bipyridine)-3-carboxamide]
22 | ≤ 200 | COc1cnc(Cl)c(F)c1-c1cc(C)ncc1C(=O)Nc1nnc(O[C@H]2CC[C@@H](O)C2)s1 (racemic) [Example 170, rac-2′-chloro-3′-fluoro-N-(5-(((1R,3S)-3-hydroxycyclopentyl)oxy)-1,3,4-thiadiazol-2-yl)-5′-methoxy-6-methyl-(4,4′-bipyridine)-3-carboxamide]
23 | ≤ 200 | COc1cnc(Cl)cc1-c1cc(C)ncc1C(=O)Nc1nnc(O[C@H]2CCC[C@@H](OC)C2)s1 (single isomer, unassigned) [Example 145]
24 | ≤ 200 | COc1cnc(Br)cc1-c1cc(C)ncc1C(=O)Nc1nnc(O[C@H]2COC3(CC3)C2)s1 (single isomer, unassigned) [Example 227]

Same assay, conditions: Table 5; values given as bound; Pol theta (1-899) 5 nM, ATP, dT50 ssDNA

Row | IC50 [nM] | Compound
25 | > 10000 | COc1nnc(NC(=O)c2cc(CO)ncc2-c2c(F)cccc2OC)s1 [Example 121, 5-(2-fluoro-6-methoxyphenyl)-2-(hydroxymethyl)-N-(5-methoxy-1,3,4-thiadiazol-2-yl)isonicotinamide]
